The assay concerns the target T1, Mycobacterium thermoresistibile MycP1 (Mycolicibacterium thermoresistibile, UniProt G7CDQ2).
T1 sequence (G7CDQ2 19-443): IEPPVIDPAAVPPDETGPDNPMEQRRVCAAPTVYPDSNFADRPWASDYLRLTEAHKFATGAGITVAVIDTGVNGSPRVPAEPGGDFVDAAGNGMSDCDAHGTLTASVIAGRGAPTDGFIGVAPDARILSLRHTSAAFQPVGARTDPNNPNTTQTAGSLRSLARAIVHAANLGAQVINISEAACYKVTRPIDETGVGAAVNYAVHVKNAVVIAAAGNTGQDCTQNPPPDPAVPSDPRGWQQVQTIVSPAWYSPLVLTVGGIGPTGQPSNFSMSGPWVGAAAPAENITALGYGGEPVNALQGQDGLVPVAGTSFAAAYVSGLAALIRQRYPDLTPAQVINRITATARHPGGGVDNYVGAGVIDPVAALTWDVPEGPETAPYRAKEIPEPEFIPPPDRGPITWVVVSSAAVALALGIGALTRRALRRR
As to the kind of experiment: In vitro quenched fluorescent peptide assay of MycP1 inhibitors. Format: biochemical. As to conditions: for inhibition at 150 µM: read-out: % inhibition at 150 μM.

Each structure is given as a SMILES string.

Consider 3 compounds from publication PMC4210175 (Journal of Chemical Information and Modeling, 2014).

As a reminder, the IC50 is the midpoint of a concentration-inhibition curve. A high value points to lower potency. Usually inhibition stands for the change of the read-out against control, counted positive when it falls. For the compound `N=C(N)c1ccc(/C=C/c2ccc(C(=N)N)cc2O)cc1` [compound 11, Hydroxystilbamidine], the IC50 worked out at 85.6 µM and the inhibition at 150 µM is 79.1%.
Regarding `N=C(N)c1ccc(/N=N/Nc2ccc(C(=N)N)cc2)cc1` [compound 12, Diminazene], the inhibition at 150 µM came out at 58%.
Turning to `CC(=O)Nc1ccc(/C=N/NC(N)=S)cc1` [compound 13, Thiacetazone], the inhibition at 150 µM amounted to 80.1%.
